Assay results reported in patent publication US20170014407A1, “PYRIDAZINE DERIVATIVES FOR USE IN THE PREVENTON OR TREATMENT OF AN ATAXIC DISORDER” (TAKEDA PHARMACEUTICAL COMPANY LIMITED, priority 2014, published 2017).

Columns and labels:
[1] = system: mice carrying inherited or chemically-induced ataxia mutations; settings: Saigoh et al. 1998, cited from earlier work; for Concentration of endogenous D-serine in the cerebellum: ataxic mutant mice; for Effect on ataxia: mice carrying inherited or chemically-induced ataxia mutations
C57B16 mice = test: Delayed eyeblink conditioning test (dEBC); assay type: in vivo, mouse; settings: Group E, scopolamine 0.3 mg/kg subcutaneous
Description: Three-month old, male C57B16 mice were implanted with recording electrodes in the orbicularis oculi muscle and with stimulating electrodes on the supraorbital nerve. For classical conditioning, animals were presented with a 350-ms tone as a conditioned stimulus (CS) at the end of which received an electrical pulse in the supraorbital nerve as unconditioned stimulus (US). Classical conditioning was achieved using a delay paradigm. For this, a tone (350 ms, 2 kHz, 85-90 dB) was presented as CS. The US consisted of a paired pulse with 1 millisecond of inter-pulse interval. Each pulse lasted for 0.1 millisecond. The US was presented at the end of the CS. A total of two habituation, ten conditioning, and five extinction sessions were carried out for each animal. Further details of this method can be found in the article by Gruart A., “Involvement of the CA3-CA1 synapse in the acquisition of associative learning in behaving mice”, J. Neurosci., 2006, 26, 1077-1087.
The effects on associative learning of a DAAO inhibitor compound of the invention were compared against different control and scopolamine-administered groups. Scopolamine is io a non-selective muscarinic receptor antagonist shown to consistently produce impairment of learning in rodents (see Klinkenberg, A., “The validity of scopolamine as a pharmacological model for cognitive impairment: A review of animal behavioral studies” Neuroscience and Biobehavioral Reviews, 2010, 34, 1307-1350.
is Nine groups, each containing 15 mice except for the untreated control group which contained 14 mice, were tested:
Group A was orally administered with Vehicle 1 (an aqueous solution of 0.5% methyl cellulose);
Group B was orally administered with a solution of a DAAO inhibitor of formula (I) in Vehicle 1 at a dose of 0.1 mg/kg (Solution 1);
Group C was orally administered with a solution of a DAAO inhibitor of formula (I) (the same one as for Group B) in Vehicle 1 at a dose of 1.0 mg/kg (Solution 2);
Group D was administered subcutaneously with Vehicle 2 (distilled water);
Group E was administered subcutaneously with a solution of scopolamine in Vehicle 2 at a dose of 0.3 mg/kg (Solution 3);
Group F was administered orally with Solution 1 and subcutaneously with Solution 3;
Group G was administered orally with Solution 2 and subcutaneously with Solution 3;
Group H was administered orally with Vehicle 1 and subcutaneously with Vehicle 2;
Group I was the untreated control group.

Row | Structure (SMILES) | Concentration of endogenous D-serine in the cerebellum [1] | Effect on ataxia [1] | Mean Percentage of Conditioned Responses (%) (C57B16 mice; conditioning session 1) | Mean Percentage of Conditioned Responses (%) (C57B16 mice; conditioning session 2) | Mean Percentage of Conditioned Responses (%) (C57B16 mice; conditioning session 3) | Mean Percentage of Conditioned Responses (%) (C57B16 mice; conditioning session 4) | Mean Percentage of Conditioned Responses (%) (C57B16 mice; conditioning session 5) | Mean Percentage of Conditioned Responses (%) (C57B16 mice; conditioning session 6) | Mean Percentage of Conditioned Responses (%) (C57B16 mice; conditioning session 7) | Mean Percentage of Conditioned Responses (%) (C57B16 mice; conditioning session 8) | Mean Percentage of Conditioned Responses (%) (C57B16 mice; conditioning session 9) | Mean Percentage of Conditioned Responses (%) (C57B16 mice; conditioning session 10) | Mean Percentage of Conditioned Responses (%) (C57B16 mice; extinction session 1) | Mean Percentage of Conditioned Responses (%) (C57B16 mice; extinction session 2) | Mean Percentage of Conditioned Responses (%) (C57B16 mice; extinction session 3) | Mean Percentage of Conditioned Responses (%) (C57B16 mice; extinction session 4) | Mean Percentage of Conditioned Responses (%) (C57B16 mice; extinction session 5) | Mean Percentage of Conditioned Responses (%) (C57B16 mice; habituation session 1) | Mean Percentage of Conditioned Responses (%) (C57B16 mice; habituation session 2)
1 | N[C@@H]1CONC1=O [D-cycloserine] | increase in the concentration of endogenous D-serine in the cerebellum | ameliorating effect on ataxia | – | – | – | – | – | – | – | – | – | – | – | – | – | – | – | – | –
2 | CCOC(=O)[C@H](N)CO [D-serine ethylester] | increase in the concentration of endogenous D-serine in the cerebellum | ameliorating effect on ataxia | – | – | – | – | – | – | – | – | – | – | – | – | – | – | – | – | –
3 | CN1[C@@H]2C[C@@H](OC(=O)[C@H](CO)c3ccccc3)C[C@H]1[C@@H]1O[C@@H]12 [scopolamine] | – | – | 37.67 | 40.33 | 43.78 | 43.33 | 45.67 | 45.98 | 48.78 | 51.56 | 51.33 | 52.56 | 51.22 | 45.78 | 43.78 | 42.00 | 43.22 | 26.44 | 27.44
